Experimental data reported in patent publication US11197904B2, “Pharmaceutical compositions for preventions and managements of dementia, infectious diseases, cancers, periodontitis, dental caries, diabetes, obesity, osteoporosis and chronic pain and methods thereof” (Chung Shan Medical University, priority 2018, dated 2021).
Values after ≈ are worked out from the molar mass of the structure shown. Read-outs that look alike come from different tables or passages of the source.

Experiments:
[1] = test system: Streptococcus mutans (S.m., UA159); settings: for IC50: read-out: IC50, UA159, metals alone
[2] = test system: Staphylococcus aureus (S.a); settings: for IC50: read-out: IC50, S. a., metals alone
[3] = test system: Pseudomonas aeruginosa (P.a.); settings: for IC50: read-out: IC50, P. a., metals alone
[4] = test system: Porphyromonas gingivalis (P.g.); settings: for IC50: read-out: IC50, P. g., metals alone
[5] = test system: Streptococcus mutans (S.m., UA159); experiment: microbe, parasite or virus in culture; settings: read-out: IC50, 50% inhibition on bacterial proliferation, UA159
[6] = test system: Staphylococcus aureus (S.a); experiment: microbe, parasite or virus in culture; settings: read-out: IC50, 50% inhibition on bacterial proliferation, S. a.
[7] = test system: Lactobacillus reuteri (L.r.); experiment: Proliferation of the probiotic Lactobacillus reuteri (OD600); assay type: cell-based
[8] = test system: Pseudomonas aeruginosa (P.a.); experiment: microbe, parasite or virus in culture; settings: read-out: IC50, 50% inhibition on bacterial proliferation, P. a.
[9] = test system: Porphyromonas gingivalis (P.g.); experiment: microbe, parasite or virus in culture; settings: read-out: IC50, 50% inhibition on bacterial proliferation, P. g.
[10] = 3 to 10 times higher IC50, Table 2
[11] = 3 to 10 times higher than the listed IC50, Table 1

Row | Compound | IC50 [5] | IC50 [6] | IC50 [8] | IC50 [9] | other results
1 | Phospholipase A2 | – | – | – | – | IC50, 50% inhibition on bacterial proliferation, UA159 ([1]; single agent): >10 µg/mL; IC50, 50% inhibition on bacterial proliferation, S. a. ([2]; single agent): >10 µg/mL; IC50, 50% inhibition on bacterial proliferation, P. a. ([3]; single agent): >10 µg/mL; IC50, 50% inhibition on bacterial proliferation, P. g. ([4]; single agent): >10 µg/mL
2 | N=C(N)NCCC[C@H](N)C(=O)N[C@@H](Cc1ccccc1)C(=O)O [ArgPhe] | – | – | – | – | IC50, 50% inhibition on bacterial proliferation, UA159 ([1]; S.m., UA159): >100 µg/mL; IC50, 50% inhibition on bacterial proliferation, S. a. ([2]; S.a, 16 h): >100 µg/mL; IC50, 50% inhibition on bacterial proliferation, P. a. ([3]; P.a., 16 h): >100 µg/mL; IC50, 50% inhibition on bacterial proliferation, P. g. [4]: >100 µg/mL
3 | C[C@@H]1[C@H](O)[C@@H](C)/C=C/C=C/CC/C=C/C=C/C=C/C=C/C(O[C@H]2O[C@H](C)[C@@H](O)[C@H](N)[C@@H]2O)CC2O[C@](O)(CC(O)C(O)CCC(O)CC(O)CC(O)CC(=O)O[C@H]1C)CC(O)C2C(=O)O (stereo partly shown) [Nystatin] | – | – | – | – | IC50, 50% inhibition on bacterial proliferation, UA159 ([1]; single agent): >300 µg/mL; IC50, 50% inhibition on bacterial proliferation, S. a. ([2]; single agent): >300 µg/mL; IC50, 50% inhibition on bacterial proliferation, P. a. ([3]; single agent): >300 µg/mL; IC50, 50% inhibition on bacterial proliferation, P. g. ([4]; single agent): 228 µg/mL (≈ 246 µM)
4 | CN(C)CCCN1c2ccccc2Sc2ccc(Cl)cc21 [Chlorpromazine] | 7 µg/mL (≈ 22 µM) | 12 µg/mL (≈ 37.6 µM) | 149 µg/mL (≈ 467 µM) | 5 µg/mL (≈ 15.7 µM) | Inhibition on proliferation of Lactobacillus reuteri [7, 10]: CPZ, Chlorpromazine*
5 | COc1ccc(CCN(C)CCCC(C#N)(c2ccc(OC)c(OC)c2)C(C)C)cc1OC (stereo not shown) [Verapamil] | > 300 µg/mL | > 300 µg/mL | > 300 µg/mL | 137 µg/mL (≈ 301 µM) | –
6 | [H]/N=C(/N)N[C@H]1[C@H](O)[C@@H](O)[C@H](O[C@@H]2O[C@@H](C)[C@](O)(C=O)[C@H]2O[C@@H]2O[C@@H](CO)[C@H](O)[C@@H](O)[C@@H]2NC)[C@@H](N/C(N)=N\[H])[C@@H]1O [Streptomycin] | 21 µg/mL (≈ 36.1 µM) | 0.2 µg/mL (≈ 0.344 µM) | 5 µg/mL (≈ 8.6 µM) | 9 µg/mL (≈ 15.5 µM) | –
7 | NNC(=O)c1ccncc1 [Isoniazid] | > 300 µg/mL | > 300 µg/mL | > 300 µg/mL | > 300 µg/mL | –
8 | O=c1c(O)c(-c2ccc(O)c(O)c2)oc2cc(O)cc(O)c12 [Quercetin] | 46 µg/mL (≈ 152 µM) | > 100 µg/mL | > 100 µg/mL | > 100 µg/mL | –
9 | COc1cc(/C=C/C(=O)CC(=O)/C=C/c2ccc(O)c(OC)c2)ccc1O [Curcumin] | 42 µg/mL (≈ 114 µM) | < 1000 µg/mL | 302 µg/mL (≈ 820 µM) | 126 µg/mL (≈ 342 µM) | Inhibition on proliferation of Lactobacillus reuteri [7, 11]: C*, Curcumin
10 | N.N.N.N.N.N.N.N.N.N.N.N.N.N.[Cl-].[Cl-].[Cl-].[Cl-].[Cl-].[Cl-].[O-2].[O-2].[Ru+3].[Ru+3].[Ru+4] [Ruthenium red] | – | – | – | – | Inhibition on proliferation of Lactobacillus reuteri [7, 11]: RuR*,; IC50 [1]: 644 µM; IC50 [2]: > 116 µM; IC50 [3]: 32 µM; IC50 [4]: 74 µM
11 | [Cl][Cu][Cl] [CuCl2] | – | – | – | – | IC50 [1]: 448 µM; IC50 [2]: > 2000 µM; IC50 [3]: 1690 µM; IC50 [4]: 673 µM
12 | CSc1ccc2c(c1)N(CCC1CCCCN1C)c1ccccc1S2 (stereo not shown) [Thioridazine] | – | – | – | – | Inhibition on proliferation of Lactobacillus reuteri [7, 10]: TRZ, Thioridazine*
13 | polyarginine | – | – | – | – | IC50, 50% inhibition on bacterial proliferation, UA159 ([1]; single agent): >100 µg/mL; IC50, 50% inhibition on bacterial proliferation, S. a. ([2]; single agent): >100 µg/mL; IC50, 50% inhibition on bacterial proliferation, P. a. ([3]; single agent): >100 µg/mL; IC50, 50% inhibition on bacterial proliferation, P. g. ([4]; single agent): 25 µg/mL
14 | C[C@@H]1CC[C@@]2(OC1)O[C@H]1[C@@H](O)[C@H]3[C@@H]4CC[C@H]5C[C@@H](O[C@@H]6O[C@H](CO)[C@H](O[C@@H]7O[C@H](CO)[C@@H](O)[C@H](O[C@@H]8OC[C@@H](O)[C@H](O)[C@H]8O)[C@H]7O[C@@H]7O[C@H](CO)[C@H](O)[C@H](O[C@@H]8O[C@H](CO)[C@@H](O)[C@H](O)[C@H]8O)[C@H]7O)[C@H](O)[C@H]6O)[C@H](O)C[C@]5(C)[C@H]4CC[C@]3(C)[C@H]1[C@@H]2C [Digitonin] | > 300 µg/mL | > 300 µg/mL | > 300 µg/mL | 123 µg/mL (≈ 100 µM) | –
15 | Cardiotoxin | – | – | – | – | IC50, 50% inhibition on bacterial proliferation, UA159 ([1]; single agent): >10 µg/mL; IC50, 50% inhibition on bacterial proliferation, S. a. ([2]; single agent): >10 µg/mL; IC50, 50% inhibition on bacterial proliferation, P. a. ([3]; single agent): >10 µg/mL; IC50, 50% inhibition on bacterial proliferation, P. g. ([4]; single agent): 11 µg/mL
16 | CC12CC3CC(C)(C1)CC(N)(C3)C2 [Memantine] | 386 µg/mL (≈ 2150 µM) | 435 µg/mL (≈ 2430 µM) | 321 µg/mL (≈ 1790 µM) | 59 µg/mL (≈ 329 µM) | –
17 | CCCCCCc1ccc(O)cc1O [4-Hexyl-Resorcinol] | 15 µg/mL (≈ 77.2 µM) | 32 µg/mL (≈ 165 µM) | > 100 µg/mL | 20 µg/mL (≈ 103 µM) | –
18 | C=C[C@H]1C[N@@]2CC[C@H]1C[C@H]2[C@H](O)c1ccnc2ccc(OC)cc12 [Quinine] | > 100 µg/mL | > 100 µg/mL | > 100 µg/mL | 43 µg/mL (≈ 133 µM) | –
19 | O=C(O[C@@H]1Cc2c(O)cc(O)cc2O[C@@H]1c1cc(O)c(O)c(O)c1)c1cc(O)c(O)c(O)c1 [EGCG] | – | – | – | – | IC50, 50% inhibition on bacterial proliferation, UA159 ([1]; single agent): 137 µg/mL (≈ 299 µM); IC50, 50% inhibition on bacterial proliferation, S. a. ([2]; single agent): 142 µg/mL (≈ 310 µM); IC50, 50% inhibition on bacterial proliferation, P. a. ([3]; single agent): 173 µg/mL (≈ 377 µM); IC50, 50% inhibition on bacterial proliferation, P. g. ([4]; single agent): 83 µg/mL (≈ 181 µM)
